Source: patent publication US20250313572A1, “MACROCYCLIC MCL-1 INHIBITORS AND METHODS OF USE” (AbbVie Inc., priority 2017, published 2025)
Like-named read-outs stand apart in the source and are kept apart here.

What was measured:
GST-MCL-1 = GST-MCL-1 (Homo sapiens, UniProt Q07820); assay: TR-FRET MCL-1 binding assay (competition with probe F-Bak)
How it was run: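 Test compounds, 11 three-fold dilutions from 25 μM final, incubated 2 hours at room temperature with GST-MCL-1, F-Bak probe and Tb-anti-GST antibody. TR-FRET read at 340/35 nm excitation with 520/525 and 495/510 nm emission. Run without human serum and with 10% HS.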

[1] = tested on: AMO-1 human multiple myeloma tumor cell line; assay: AMO-1 cell viability assay (CellTiter-Glo, 24 hours); format: cell-based; settings: Homo sapiens, AMO1, 24 h, read-out: AMO-1 Viability IC50 (μM, 10% FBS), 10% FBS, 24 hours of compound treatment
[2] = tested on: NCI-H929 human multiple myeloma tumor cell line; assay: NCI-H929 cell viability assay (CellTiter-Glo, 24 hours); format: cell-based; settings: Homo sapiens, NCI-H929, 24 h, read-out: H929 Viability IC50 (μM, 10% FBS), 10% FBS, 24 hours of compound treatment
[3] = MCL-1 Binding Ki (nM, 10% HS), in the presence of 10% HS (human serum)
[4] = without HS, read-out: MCL-1 Binding Ki

Sequence of GST-MCL-1 (Q07820 whole entry): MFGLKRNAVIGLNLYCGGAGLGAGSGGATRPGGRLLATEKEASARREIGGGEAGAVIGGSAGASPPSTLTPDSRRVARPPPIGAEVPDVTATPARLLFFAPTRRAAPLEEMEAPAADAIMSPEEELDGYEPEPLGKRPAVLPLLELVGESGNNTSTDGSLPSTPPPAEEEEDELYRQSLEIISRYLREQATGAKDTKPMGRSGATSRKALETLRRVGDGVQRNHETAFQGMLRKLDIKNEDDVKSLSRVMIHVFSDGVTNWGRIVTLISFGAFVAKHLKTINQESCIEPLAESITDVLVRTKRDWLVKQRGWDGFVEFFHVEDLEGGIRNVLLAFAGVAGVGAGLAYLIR

Q: Which results are given for `COCCOCCOCCOc1ccc(COc2ccc3cc2C[C@H](C(=O)O)Oc2ncnc4sc(-c5ccc(F)cc5)c(c24)-c2c(C)c(Cl)c(c(Cl)c2C)O[C@H](CN2CCN(C)CC2)CO3)nc1` [Example 162, (7R,16R)-19,23-dichloro-1-(4-fluorophenyl)-10-[(5-{2-[2-(2-methoxyethoxy)ethoxy]ethoxy}pyridin-2-yl)methoxy]-20,22-dimethyl-16-[(4-methylpiperazin-1-yl)methyl]-7,8,15,16-tetrahydro-18,21-etheno-13,9-(metheno)-6,14,17-trioxa-2-thia-3,5-diazacyclononadeca[1,2,3-cd]indene-7-carboxylic Acid]?
A: Ki (GST-MCL-1; [3]): 0.934 nM; Ki (GST-MCL-1; [4]): 0.159 nM; IC50 [1]: 0.012 µM; IC50 [2]: 0.0143 µM

Q: What does the source list for `CO[C@H]1O[C@H](COc2ccc(-c3nccc(COc4ccc5cc4C[C@H](C(=O)O)Oc4ncnc6sc(-c7ccc(F)cc7)c(c46)-c4ccc(c(Cl)c4C)CN(CCN4CCN(C)CC4)C5)n3)cc2)[C@@H](O)[C@H](O)[C@@H]1O` [Example 10, methyl 6-O-{4-[4-({[(7R,20S)-7-carboxy-18-chloro-1-(4-fluorophenyl)-19-methyl-15-[2-(4-methylpiperazin-1-yl)ethyl]-7,8,15,16-tetrahydro-14H-17,20-etheno-13,9-(metheno)-6-oxa-2-thia-3,5,15-triazacyclooctadeca[1,2,3-cd]inden-10-yl]oxy}methyl)pyrimidin-2-yl]phenyl}-a-D-mannopyranoside]?
A: Ki (GST-MCL-1; [3]): 0.494 nM; Ki (GST-MCL-1; [4]): 0.06 nM; IC50 [1]: > 1 µM; IC50 [2]: > 1 µM

Q: What does the source list for `Cc1c2ccc(c1Cl)O[C@H](CN1CCN(C)CC1)COc1ccc(OCc3ccnc(-c4ccccc4C(=O)O)n3)c(c1)C[C@H](C(=O)O)Oc1ncnc3sc(-c4ccc(F)cc4)c-2c13` (atropisomer, axis not shown) [Example 19, (7R,16R)-10-{[2-(2-carboxyphenyl)pyrimidin-4-yl]methoxy}-19-chloro-1-(4-fluorophenyl)-20-methyl-16-[(4-methylpiperazin-1-yl)methyl]-7,8,15,16-tetrahydro-18,21-etheno-13,9-(metheno)-6,14,17-trioxa-2-thia-3,5-diazacyclononadeca[1,2,3-cd]indene-7-carboxylic Acid]?
A: Ki (GST-MCL-1; [3]): 0.069 nM; Ki (GST-MCL-1; [4]): 0.006 nM; IC50 [1]: 0.0963 µM; IC50 [2]: 0.365 µM

Q: How did the Ki (GST-MCL-1; [3]) turn out when `COCCOCCOCCOCCOCCOC1(c2nccc(COc3ccc4cc3C[C@H](C(=O)O)Oc3ncnc5sc(-c6ccc(F)cc6)c(c35)-c3c(C)c(Cl)c(c(Cl)c3C)O[C@H](CN3CCN(C)CC3)CO4)n2)CCC1` [Example 63, (7R,16R)-19,23-dichloro-1-(4-fluorophenyl)-20,22-dimethyl-16-[(4-methylpiperazin-1-yl)methyl]-10-[(2-{1-[(2,5,8,11,14-pentaoxahexadecan-16-yl)oxy]cyclobutyl}pyrimidin-4-yl)methoxy]-7,8,15,16-tetrahydro-18,21-etheno-9,13-(metheno)-6,14,17-trioxa-2-thia-3,5-diazacyclononadeca[1,2,3-cd]indene-7-carboxylic Acid] was run?
A: 0.148 nM

Q: And the Ki (GST-MCL-1; [4])?
A: 0.039 nM

Q: And the IC50 [1]?
A: 0.00205 µM

Q: What about the IC50 [2] of the same molecule?
A: 0.0032 µM

Q: Which results are given for `COCCOCCOCCOc1cncc(COc2ccc3cc2C[C@H](C(=O)O)Oc2ncnc4sc(-c5ccc(F)cc5)c(c24)-c2c(C)c(Cl)c(c(Cl)c2C)O[C@H](CN2CCN(C)CC2)CO3)n1` [Example 176, (7R,16R)-19,23-dichloro-1-(4-fluorophenyl)-10-[(6-{2-[2-(2-methoxyethoxy)ethoxy]ethoxy}pyrazin-2-yl)methoxy]-20,22-dimethyl-16-[(4-methylpiperazin-1-yl)methyl]-7,8,15,16-tetrahydro-18,21-etheno-13,9-(metheno)-6,14,17-trioxa-2-thia-3,5-diazacyclononadeca[1,2,3-cd]indene-7-carboxylic Acid]?
A: Ki (GST-MCL-1; [3]): 0.868 nM; Ki (GST-MCL-1; [4]): 0.151 nM; IC50 [1]: 0.00386 µM; IC50 [2]: 0.0073 µM

Q: With `Cc1c(Cl)c2c(Cl)c(C)c1-c1c(-c3ccc(F)cc3)sc3ncnc(c13)O[C@@H](C(=O)O)Cc1cc(ccc1OCc1ccnc(-c3ccc(OCC4COCCOCCOCCOCCO4)cc3)n1)OC[C@@H](CN1CCN(C)CC1)O2` (stereo partly drawn) [Example 107, (7R,16R)-19,23-dichloro-1-(4-fluorophenyl)-20,22-dimethyl-16-[(4-methylpiperazin-1-yl)methyl]-10-[(2-{4-[(1,4,7,10,13-pentaoxacyclopentadecan-2-yl)methoxy]phenyl}pyrimidin-4-yl)methoxy]-7,8,15,16-tetrahydro-18,21-etheno-13,9-(metheno)-6,14,17-trioxa-2-thia-3,5-diazacyclononadeca[1,2,3-cd]indene-7-carboxylic Acid] as the molecule, how does the Ki (GST-MCL-1; [3]) read?
A: 0.412 nM

Q: And the Ki (GST-MCL-1; [4])?
A: 0.026 nM

Q: And the IC50 [1]?
A: 0.00147 µM

Q: And the IC50 [2]?
A: 0.000552 µM

Q: With `COCCOCCOCCOCCOCCOCCOCC1(c2nccc(COc3ccc4cc3C[C@H](C(=O)O)Oc3ncnc5sc(-c6ccc(F)cc6)c(c35)-c3c(C)c(Cl)c(c(Cl)c3C)O[C@H](CN3CCN(C)CC3)CO4)n2)CCC1` [Example 60, (7R,16R)-19,23-dichloro-1-(4-fluorophenyl)-10-({2-[1-(2,5,8,11,14,17,20-heptaoxahenicosan-1-yl)cyclobutyl]pyrimidin-4-yl}methoxy)-20,22-dimethyl-16-[(4-methylpiperazin-1-yl)methyl]-7,8,15,16-tetrahydro-18,21-etheno-13,9-(metheno)-6,14,17-trioxa-2-thia-3,5-diazacyclononadeca[1,2,3-cd]indene-7-carboxylic Acid] as the molecule, how does the Ki (GST-MCL-1; [3]) read?
A: 0.125 nM

Q: And the Ki (GST-MCL-1; [4])?
A: 0.042 nM

Q: What about the IC50 [1] of the same molecule?
A: 0.000987 µM

Q: What about the IC50 [2] of the same molecule?
A: 0.00115 µM

Q: How did the Ki (GST-MCL-1; [3]) turn out when `Cc1c(Cl)c2c(Cl)c(C)c1-c1c(-c3ccc(F)cc3)sc3ncnc(c13)O[C@@H](C(=O)O)Cc1cc(ccc1OCc1ccnc(C3(COCCOC[C@H]4COCCO4)CCCCC3)n1)OC[C@@H](CN1CCN(C)CC1)O2` [Example 102, (7R,16R)-19,23-dichloro-10-[(2-{1-[(2-{[(2R)-1,4-dioxan-2-yl]methoxy}ethoxy)methyl]cyclohexyl}pyrimidin-4-yl)methoxy]-1-(4-fluorophenyl)-20,22-dimethyl-16-[(4-methylpiperazin-1-yl)methyl]-7,8,15,16-tetrahydro-18,21-etheno-13,9-(metheno)-6,14,17-trioxa-2-thia-3,5-diazacyclononadeca[1,2,3-cd]indene-7-carboxylic Acid] was run?
A: 3.27 nM

Q: And the Ki (GST-MCL-1; [4])?
A: 0.229 nM

Q: And the IC50 [1]?
A: 0.00029 µM

Q: And the IC50 [2]?
A: 0.000835 µM

Q: With `COCCOCCOCCOc1cccc(COc2ccc3cc2C[C@H](C(=O)O)Oc2ncnc4sc(-c5ccc(F)cc5)c(c24)-c2c(C)c(Cl)c(c(Cl)c2C)O[C@H](CN2CCN(C)CC2)CO3)n1` [Example 99, (7R,16R)-19,23-dichloro-1-(4-fluorophenyl)-10-[(6-{2-[2-(2-methoxyethoxy)ethoxy]ethoxy}pyridin-2-yl)methoxy]-20,22-dimethyl-16-[(4-methylpiperazin-1-yl)methyl]-7,8,15,16-tetrahydro-18,21-etheno-9,13-(metheno)-6,14,17-trioxa-2-thia-3,5-diazacyclononadeca[1,2,3-cd]indene-7-carboxylic Acid] as the molecule, how does the Ki (GST-MCL-1; [3]) read?
A: 6.17 nM

Q: And the Ki (GST-MCL-1; [4])?
A: 0.543 nM

Q: What about the IC50 [1] of the same molecule?
A: 0.000655 µM

Q: And the IC50 [2]?
A: 0.00269 µM

Q: Which results are given for `Cc1c(Cl)c2c(Cl)c(C)c1-c1c(-c3ccc(F)cc3)sc3ncnc(c13)O[C@@H](C(=O)O)Cc1cc(ccc1OCc1ccnc(N3CCP(C)(=O)CC3)n1)OC[C@@H](CN1CCN(C)CC1)O2` [Example 25, (7R,16R)-19,23-dichloro-1-(4-fluorophenyl)-20,22-dimethyl-10-{[2-(4-methyl-4-oxo-1,4λ^5-azaphosphinan-1-yl)pyrimidin-4-yl]methoxy}-16-[(4-methylpiperazin-1-yl)methyl]-7,8,15,16-tetrahydro-18,21-etheno-13,9-(metheno)-6,14,17-trioxa-2-thia-3,5-diazacyclononadeca[1,2,3-cd]indene-7-carboxylic Acid]?
A: Ki (GST-MCL-1; [3]): 5.7 nM; Ki (GST-MCL-1; [4]): 0.844 nM; IC50 [1]: 0.0727 µM; IC50 [2]: 0.0808 µM

Q: How did the Ki (GST-MCL-1; [3]) turn out when `Cc1c(Cl)c2c(Cl)c(C)c1-c1c(-c3ccc(F)cc3)sc3ncnc(c13)O[C@@H](C(=O)O)Cc1cc(ccc1OCc1ccnc(-c3ccc(OC[C@@H]4CN(C)CCO4)cc3)n1)OC[C@@H](CN1CCN(C)CC1)O2` [Example 157, (7R,16R)-19,23-dichloro-1-(4-fluorophenyl)-20,22-dimethyl-10-{[2-(4-{[(2S)-4-methylmorpholin-2-yl]methoxy}phenyl)pyrimidin-4-yl]methoxy}-16-[(4-methylpiperazin-1-yl)methyl]-7,8,15,16-tetrahydro-18,21-etheno-9,13-(metheno)-6,14,17-trioxa-2-thia-3,5-diazacyclononadeca[1,2,3-cd]indene-7-carboxylic Acid] was run?
A: 0.168 nM

Q: What about the Ki (GST-MCL-1; [4]) of the same molecule?
A: 0.008 nM

Q: What about the IC50 [1] of the same molecule?
A: 0.000233 µM

Q: What about the IC50 [2] of the same molecule?
A: 0.000821 µM

Q: For `Cc1c2ccc(c1Cl)O[C@H](CN1CCN(C)CC1)COc1ccc(OCc3ccnc(-c4ccc(OC[C@H](O)CO)cc4)n3)c(c1)C[C@H](C(=O)O)Oc1ncnc3sc(-c4ccc(F)cc4)c-2c13` (atropisomer, axis not shown) [Example 18, (7R,16R,21S)-19-chloro-10-[(2-{4-[(2R)-2,3-dihydroxypropoxy]phenyl}pyrimidin-4-yl)methoxy]-1-(4-fluorophenyl)-20-methyl-16-[(4-methylpiperazin-1-yl)methyl]-7,8,15,16-tetrahydro-18,21-etheno-13,9-(metheno)-6,14,17-trioxa-2-thia-3,5-diazacyclononadeca[1,2,3-cd]indene-7-carboxylic Acid], which Ki (GST-MCL-1; [3]) is on record?
A: 0.269 nM

Q: What about the Ki (GST-MCL-1; [4]) of the same molecule?
A: 0.011 nM

Q: What about the IC50 [1] of the same molecule?
A: 0.00295 µM

Q: And the IC50 [2]?
A: 0.00531 µM
